Experimental data as given in ChEMBL document CHEMBL3301361, “Experimental in vitro DMPK and physicochemical data on a set of publicly disclosed compounds”.
≈ marks a conversion by molar mass, not a printed value.

assay: physchem; conditions: pH 7.4 buffer

Row | Compound | solubility thermodynamic [µM]
1 | O=C(c1ccccc1)N1CCc2ccccc21 | 91.2 (≈ 20.4 µg/mL)
2 | Nc1nccc(/C=C/c2c(Cl)nc3sccn23)n1 | 324 (≈ 89.9 µg/mL)
3 | COc1cc(NS(=O)(=O)c2ccc(N)cc2)nc(OC)n1 [SULFADIMETHOXINE] | 1290 (≈ 400 µg/mL)
4 | Cc1cccc2c3c([nH]c12)CCN(C(=O)[C@@H]1CCCC[C@H]1C(=O)NC1(C#N)CC1)C3 | 513 (≈ 207 µg/mL)
5 | COc1ccc(Cl)c(Nc2ncnc3cc(OCCN4CCN(C(C)=O)CC4)cc(OC(C)C)c23)n1 | 42.7 (≈ 22 µg/mL)
6 | c1ccc2c(c1)Nc1ccccc1S2 [PHENOTHIAZINE] | 2.9 (≈ 0.578 µg/mL)
7 | CCc1cc(NC(=O)Cc2ccc(Oc3ccnc4cc(OC)ccc34)cc2OC)no1 | 4.2 (≈ 1.82 µg/mL)
8 | COc1cc2c(Nc3cc(CC(=O)Nc4cccc(F)c4)[nH]n3)ncnc2cc1OCCCNCCO | 219 (≈ 111 µg/mL)
9 | O=C(c1ccccc1)C1CCN(C(=O)c2ccc(Cl)cc2)CC1 | 28.8 (≈ 9.44 µg/mL)
10 | Cc1ncc(-c2nc(Nc3ccc(N4CCN(C(=O)CO)CC4)cc3)ncc2F)n1C(C)C | 158 (≈ 71.9 µg/mL)
11 | CCN(C(=O)Cc1ccc(S(C)(=O)=O)cc1)C1CCN(CCC(c2ccccc2)c2ccc(NS(=O)(=O)Cc3ccccc3)cc2)CC1 (stereo not drawn) | 2.3 (≈ 1.58 µg/mL)
12 | C[C@H](Oc1cccc2ncnc(Nc3ccc4c(cnn4Cc4cscn4)c3)c12)C(=O)N(C)C | 42.7 (≈ 20.2 µg/mL)
13 | COc1cc(OC2CN(C(C)=O)C2)ccc1Nc1ncc(Cl)c(-c2cnc3ccccn23)n1 | 1.7 (≈ 0.79 µg/mL)
14 | N#CC1(NC(=O)[C@@H]2CCCC[C@H]2C(=O)N2CCc3oc4ccccc4c3C2)CC1 | 575 (≈ 225 µg/mL)
15 | CC(=O)N1CCN(CCOc2ccc(C3(O)CCN(c4ccc5nnc(C(F)(F)F)n5n4)CC3)cc2)CC1 | 170 (≈ 90.6 µg/mL)
16 | CC(C)Oc1cc(OCC2CCCC2)cc(C(=O)Nc2ccc(C(=O)O)cn2)c1 | 45.7 (≈ 18.2 µg/mL)
17 | COc1cc2ncnc(Nc3ccc(C)c(O)c3)c2cc1OC | 4.4 (≈ 1.37 µg/mL)
18 | O=c1cc(-c2ccccc2)[nH]c2c(Cl)cccc12 | 30.9 (≈ 7.9 µg/mL)
19 | CC(C)(C)C(O)C(Cc1ccccc1Cl)n1cncn1 (stereo not drawn) | 398 (≈ 117 µg/mL)
20 | Nc1nccc(/C=C/c2ccccc2)n1 | 190 (≈ 37.6 µg/mL)
21 | CNC(=O)[C@@H](NC(=O)[C@H](CC(C)C)[C@H](OCc1cc2c(=O)[nH]c(C)nc2cc1Br)C(=O)NO)C(C)(C)C | 457 (≈ 266 µg/mL)
22 | CCn1cc(NC(=O)Cc2ccc(Oc3ccnc4ccc(OC)cc34)cc2OC)cn1 | 7.1 (≈ 3.07 µg/mL)
23 | COc1cc(N2CCN(C(=O)[C@H](C)O)CC2)ccc1Nc1ncc(Cl)c(-c2cnc3ccccn23)n1 | 1.5 (≈ 0.762 µg/mL)
24 | Cc1cc(C)cc(-c2[nH]c3sc(C(C)(C)C(=O)N4C5CCC4CC5)cc3c2CN2CCN(CC(=O)N3CCCC3)CC2)c1 | 1.7 (≈ 1.02 µg/mL)

Row | Compound | solubility thermodynamic [µM]
25 | O=C1CCC(N2C(=O)c3ccccc3C2=O)C(=O)N1 (stereo not drawn) [THALIDOMIDE] | 155 (≈ 40 µg/mL)
26 | CCN(CCO)CCCOc1ccc2c(Nc3cc(CC(=O)Nc4cccc(F)c4F)[nH]n3)ncnc2c1 | 93.3 (≈ 49 µg/mL)
27 | Cc1cc(C)cc(-c2[nH]c3sc(C(C)(C)C(=O)N4C5CCC4CC5)cc3c2CCN2CCC(C(=O)N3CCOCC3)C(C)C2)c1 (stereo not drawn) | 33.1 (≈ 20.9 µg/mL)
28 | CC(C)Oc1cc(O[C@H](C)Cc2ccccc2)cc(C(=O)Nc2ccc(C(=O)O)cn2)c1 | 8.5 (≈ 3.69 µg/mL)
29 | NC(=O)Nc1sc(-c2ccccc2)cc1C(=O)NCc1ccccc1 | 0.8 (≈ 0.281 µg/mL)
30 | N=C1S/C(=C/c2ccco2)C(=O)N1c1nccs1 | 182 (≈ 50.5 µg/mL)
31 | O=C(c1ccc(F)cc1)C1CCN(C(=O)c2ccccc2Cl)CC1 | 28.8 (≈ 9.96 µg/mL)
32 | CC(C)n1c2ccccc2c2c(F)c(NC(=O)N3CCOCC3)c(F)cc21 | 4.6 (≈ 1.72 µg/mL)
33 | COc1ccc(Cc2nnc(N)s2)cc1 | 363 (≈ 80.3 µg/mL)
34 | CC(=O)Nc1nc(-c2ccc(Br)s2)cs1 | 2.2 (≈ 0.667 µg/mL)
35 | N=C(N)c1ccc2cc(C(=O)Nc3ccc4c(c3)OCO4)ccc2c1 | 44.7 (≈ 14.9 µg/mL)
36 | Cc1ccc(C(=O)C(=O)c2ccc(C)cc2)cc1 | 2.1 (≈ 0.5 µg/mL)
37 | CN1CCC(Oc2cccc3ncnc(Nc4ccc(OCc5cscn5)c(Cl)c4)c23)CC1 | 4.9 (≈ 2.36 µg/mL)
38 | COc1cc2c(Nc3ncc(CC(=O)Nc4ccccc4)s3)ncnc2cc1OCCCN1CCOCC1 | 0.4 (≈ 0.214 µg/mL)
39 | N#CC1(NC(=O)[C@@H]2CCCC[C@H]2C(=O)N2CCc3[nH]c4c(OC(F)(F)F)cccc4c3C2)CC1 | 123 (≈ 58.4 µg/mL)
40 | CS(=O)(=O)Cc1cc(N2CCOCC2)nc(-c2ccc(NS(C)(=O)=O)cc2)n1 | 11.2 (≈ 4.78 µg/mL)
41 | CCOC(=O)C1CCN(c2ncnc(Oc3ccc(CCC(C)=O)cc3)c2[N+](=O)[O-])CC1 | 1.9 (≈ 0.841 µg/mL)
42 | C[C@@H](c1ccc(-c2ccc(F)cc2F)cc1)N1CC[C@](CCO)(c2ccc(F)cc2)OC1=O | 2.5 (≈ 1.14 µg/mL)
43 | Cn1cc(C(=O)CCCCOc2ccc(C(=O)O)cc2)cc1C=O | 1200 (≈ 396 µg/mL)
44 | CN(C(=O)Cc1ccc(S(C)(=O)=O)cc1)[C@@H]1CCN(Cc2nc3ccccc3s2)C[C@@H]1F | 9.1 (≈ 4.33 µg/mL)
45 | COCCN(C)S(=O)(=O)c1ccc(Nc2nccc(-c3cnc(C)n3C)n2)cc1 | 56.2 (≈ 23.4 µg/mL)
46 | COc1cc2ncnc(Nc3cccc(Cl)c3F)c2cc1CN(C)C1CCNC1=O (stereo not drawn) | 89.1 (≈ 38.3 µg/mL)
47 | O=C(N1CCC(c2ccncc2)CC1)N1CCN(S(=O)(=O)c2ccc(Cl)cc2)CC1 | 8.7 (≈ 3.91 µg/mL)
48 | O=S(=O)(c1ccc(N2CCC(c3ccc(Cl)cc3)=N2)cc1)N(CCO)CCO | 2.2 (≈ 0.933 µg/mL)

Row | Compound | solubility thermodynamic [µM]
49 | CCCCC(CC)CNC(=O)c1ccc2c(c1)c(Cc1ccc(C(=O)NS(=O)(=O)c3ccccc3C)cc1OC)cn2C (stereo not drawn) | 6.5 (≈ 3.92 µg/mL)
50 | CC1(C)CNc2cc(NC(=O)c3cccnc3NCc3ccncc3)ccc21 [MOTESANIB] | 44.7 (≈ 16.7 µg/mL)
51 | C#CCN(Cc1ccc2nc(CO)[nH]c(=O)c2c1)c1ccc(C(=O)NCc2cccc([N+](=O)[O-])c2)cc1 | 0.4 (≈ 0.199 µg/mL)
52 | O=C(CCCCCCC(=O)Nc1ccccc1)NO [VORINOSTAT] | 1230 (≈ 325 µg/mL)
53 | Cc1cc(C)cc(-c2[nH]c3sc(C(C)(C)C(=O)N4C5CCC4CC5)cc3c2C(=O)CN2CCN(CC(=O)N3CCCC3)CC2)c1 | 70.8 (≈ 44.6 µg/mL)
54 | CNc1nc2ccc(NC(C)=O)cc2s1 | 347 (≈ 76.7 µg/mL)
55 | NC(=O)c1ccc(I)c([N+](=O)[O-])c1 [INIPARIB] | 417 (≈ 122 µg/mL)
56 | COc1ccc(NCc2ccc(C(=O)Nc3ccccc3N)cc2)cc1OC | 57.5 (≈ 21.7 µg/mL)
57 | COC[C@@H](C(N)=O)N(C)Cc1cc2c(Nc3cccc(Cl)c3F)ncnc2cc1OC | 3.8 (≈ 1.7 µg/mL)
58 | Cc1ccc(-c2cn3cccnc3n2)cc1 | 251 (≈ 52.6 µg/mL)
59 | CN(C)C(=O)c1cc(-c2nc(N3CCOCC3)cc(C3(S(C)(=O)=O)CC3)n2)c2cc[nH]c2c1 | 100 (≈ 47 µg/mL)
60 | O=C(c1ccc(F)cc1)C1CCN(C(=O)c2ccc(F)cc2Cl)CC1 | 14.5 (≈ 5.27 µg/mL)
61 | COc1cc2ncnc(Nc3cccc(Cl)c3F)c2cc1CN(C)C1(C(N)=O)CN(C)C1 | 51.3 (≈ 23.5 µg/mL)
62 | C[C@H](C#N)NC(=O)[C@@H]1CCCC[C@H]1C(=O)N1CCc2[nH]c3ccc(F)cc3c2C1 | 457 (≈ 181 µg/mL)
63 | O=C(CNC(=O)c1ccc(Cl)cc1)c1ccc(Br)cc1 | 0.5 (≈ 0.176 µg/mL)
64 | COC(=O)C1=C(C#N)NC(C)=C(C(=O)OC(C)C)C1c1cccc([N+](=O)[O-])c1 (stereo not drawn) [NILVADIPINE] | 2.1 (≈ 0.809 µg/mL)
65 | CC(=O)N1CCN(CC(O)CN2CCN(CCc3c(-c4cc(C)cc(C)c4)[nH]c4sc(C(C)(C)C(=O)N5C6CCC5CC6)cc34)CC2)CC1 (stereo not drawn) | 214 (≈ 147 µg/mL)
66 | COc1cc2c(Nc3ccc(Br)cc3F)ncnc2cc1OCCCN1CCN(C)CC1 | 41.7 (≈ 21 µg/mL)
67 | COC[C@H](C)Oc1cc(O[C@@H](C)Cc2ccc(F)cc2)cc(C(=O)Nc2ccc(C(=O)O)cn2)c1 | 1260 (≈ 607 µg/mL)
68 | Nc1ccccc1NC(=O)c1ccc(C2CCN(CCC(=O)Nc3ccccc3F)CC2)cc1 | 112 (≈ 51.7 µg/mL)
69 | Fc1ccc(CN2CCN(C3=Nn4c(nnc4C(F)(F)F)CC3)CC2)cc1 | 525 (≈ 201 µg/mL)
70 | COc1cccc(NC(=O)Cn2cc(Oc3ncnc4cc(OC)c(OCCN5CCCCC5)cc34)cn2)c1 | 141 (≈ 75.3 µg/mL)
71 | CC(C)Oc1cc(OCCc2ccccc2)cc(C(=O)Nc2ccc(C(=O)O)cn2)c1 | 28.8 (≈ 12.1 µg/mL)
72 | COc1ccc(OC)c(NC(=O)Cc2cccs2)c1 | 74.1 (≈ 20.6 µg/mL)

Row | Compound | solubility thermodynamic [µM]
73 | CN(C)CCCNS(=O)(=O)c1ccc(Nc2nccc(-c3cnc4cccnn34)n2)cc1 | 158 (≈ 71.7 µg/mL)
74 | Cc1cc2oc(=O)cc(Cn3ccnc3)c2cc1C | 33.9 (≈ 8.62 µg/mL)
75 | CC(C)(C)OC(=O)N1CCC(c2ncc(OCc3ccc(S(C)(=O)=O)cc3)cn2)CC1 | 61.7 (≈ 27.6 µg/mL)
76 | COc1ccccc1C[C@@H](C(=O)O)N1CCC(CN2CCC(Oc3ccc(Cl)c(Cl)c3)CC2)CC1 | 263 (≈ 137 µg/mL)
77 | CNC(=O)[C@@H](C)Oc1cccc2ncnc(Nc3ccc4c(cnn4Cc4nccs4)c3)c12 | 1.3 (≈ 0.597 µg/mL)
78 | COc1ccc2c(Oc3cnc(CC(=O)Nc4cn(C)nc4C)c(OC)c3)ccnc2c1 | 15.1 (≈ 6.55 µg/mL)
79 | c1ccc2c(c1)Cc1ccccc1O2 [XANTHENE] | 4.4 (≈ 0.802 µg/mL)
80 | Cc1ccc(NC(=O)c2ccnc(N3CCOCC3)c2)cc1-n1c(C)nc2ccc(N3CCN(C)CC3)cc2c1=O | 851 (≈ 471 µg/mL)
81 | CCN1N=C(c2ccccc2)Cn2c1nc1ccccc12 | 6.9 (≈ 1.91 µg/mL)
82 | Cc1ccc(/C=C2\SC(=O)NC2=O)cc1 | 85.1 (≈ 18.7 µg/mL)
83 | OC1CCN(CCOc2n[nH]c3ncnc(Nc4ccc(OCc5cccc(F)c5)c(Cl)c4)c23)CC1 | 4.5 (≈ 2.31 µg/mL)
84 | Cc1cc(C)c(C(=O)N[C@@H](CNC(=O)CO[C@@H]2C[C@@H](CNc3ccccn3)N(C(=O)OCc3ccccc3)C2)C(=O)O)c(C)c1 | 389 (≈ 240 µg/mL)
85 | COc1cccc(NC(=O)Cn2cc(Oc3ncnc4cc(OC)c(OC)cc34)cn2)c1 | 2.9 (≈ 1.26 µg/mL)
86 | C[C@@H](Cc1ccccc1)Oc1cc(OC2CCOCC2)cc(C(=O)Nc2ccc(C(=O)O)cn2)c1 | 105 (≈ 49.9 µg/mL)
87 | COc1cc2c(Nc3c(Cl)ccc4c3OCO4)ncnc2cc1OCc1ccnc(C#N)c1 | 10.2 (≈ 4.71 µg/mL)
88 | C[C@@H](Oc1cccc2ncnc(Nc3ccc4c(cnn4Cc4cccc(F)c4)c3)c12)C(=O)N1CCOCC1 | 0.3 (≈ 0.158 µg/mL)
89 | C[C@@H](Oc1cccc2ncnc(Nc3ccc4c(cnn4Cc4cscn4)c3)c12)C(=O)N(C)C | 43.7 (≈ 20.7 µg/mL)
90 | CNC(=O)N1c2ccccc2C=Cc2ccccc21 | 380 (≈ 95.2 µg/mL)
91 | COc1ccc(N(C)C(=O)c2ccc3nc(-c4ccccc4)c(-c4ccccc4)nc3c2)cc1 | 0.7 (≈ 0.312 µg/mL)
92 | CC(C)Oc1cccc(NC(=O)c2ccc3cc(C(=N)N)ccc3c2)c1 | 64.6 (≈ 22.4 µg/mL)
93 | Cc1c(Cl)c(C(F)(F)F)nn1CC(=O)N1CCN(c2ccc(F)cc2)CC1 | 1.9 (≈ 0.769 µg/mL)
